Measurements from patent US6323001A, “Increasing the trehalose content of organisms by transforming them with combinations of the structural genes for trehalose synthase” (BTG International Ltd., priority 1994, dated 2001).
Like-named read-outs stand apart in the source and are kept apart here.

Key:
Format in all cases: biochemical, baker's yeast
[1] = target: T1, Tre6P synthase activity of intact trehalose synthase (Saccharomyces cerevisiae, UniProt Q00764); assay: Tre6P synthase assay of intact trehalose synthase; conditions: for EC50: read-out: K1/2 of activation by F6P; for Tre6P synthase activity, Intact Enzyme: 10 mM G6P, 5 mM UDPG, 5 mM F6P, without phosphate = 100%
T1 construct: Intact trehalose synthase was purified from commercial baker's yeast; made in house; host or cells: commercial baker's yeast (native enzyme purified, not recombinant)
Experimental: (§1) With microbial materials, Tre6Pase and Tre6P synthase standard assays and other kinetic measurements were made as described by Londesborough & Vuorio [(1991) loc. cit.] except that the standard Tre6P synthase assay mixture contained 5 mM F6P unless stated otherwise.
Removal of the N-terminal 325 or so amino acids from the 123 kDa long chain of intact trehalose synthase by treatment with trypsin in vitro produces an enzyme with catalytic properties like those of the truncated enzyme purified by Londesborough & Vuorio [(1991) loc. cit.]. In one experiment intact trehalose synthase (0.28 Tre6P synthase units, ≈9.4 μg) was incubated with or without 0.5 μg of trypsin at 30° C. in 250 μl of 13 mM HEPES pH 7.0 containing 1 mM MgCl2, 0.5 mM EDTA, 0.5 mM dithiothreitol, 0.2 M NaCl and 0.5 mM benzamidine. Its Tre6P synthase activity was determined at intervals using standard assay mixtures (containing 5 mM F6P) containing no or 4 mM K phosphate pH 6.8, and samples were prepared for SDS-PAGE analysis immediately before and 48 min after addition of the trypsin.
(§2) Truncated trehalose synthase was prepared as described by Londesborough & Vuorio [(1991) loc. cit.] and contained the 57 kDa short chain and 86 and 93 kDa fragments of the long chain. Intact trehalose synthase was prepared as in Example 1. Kinetic assays were done at 30° C. as described in General Methods and Materials.

[2] = target: Tre6Pase activity of truncated trehalose synthase (Saccharomyces cerevisiae, UniProt P31688); assay: Tre6Pase assay of truncated trehalose synthase
Experimental: as §1
(§3) Truncated trehalose synthase containing the short (57 kDa) chain and the 86 and 93 kDa long chain fragments was prepared according to the method of Londesborough & Vuorio (1991) loc. cit.] for proteolytically activated TPS/P complex. Tre6P synthase and Tre6Pase activities were assayed as described by Londesborough & Vuorio [(1991) loc. cit.]. [N-ethyl-1-^14C]-maleimide (ethyl-labelled NEM; 40 mCi/mmol) was NEC-454 from New England Nuclear. N-ethyl-[2,3-^14 C]-maleimide (ring-labelled NEM; 6 mCi/mmol) was CFA 293 from Amersham International. Both were obtained as solutions in n-pentane and the manufacturer's stated specific activities were assumed to be correct. Unlabelled N-ethyl-maleimide (NEM) was E-3876 from Sigma. It was dissolved in 25 mM HEPES pH 7.0 immediately before use and standardized by absorption measurements at 305 nm, assuming an E^mM of 0.62.
In one experiment, 2.0 μl of 2.4 mM ethyl-labelled NEM was mixed with 150 μl of gel-filtered enzyme and incubated at 23° C. Samples (10 μl) taken at various times up to 190 min were mixed with 60 μl of Laemmli sample buffer (the mercapto-ethanol in this buffer should destroy residual NEM), boiled for 5 min and subjected to SDS-PAGE. At closely similar times (and also at 23 h) other samples (10 μl) were mixed with 100 μl (for Tre6P synthase) or 700 μl (for Tre6Pase) of 5 mg BSA/ml 25 mM HEPES pH 7.0 containing 2 mM MgCl2, 1 mM EDTA, 0.2 M NaCl and 1 mM dithiothreitol (the dithiothreitol should destroy residual NEM) and assayed for Tre6P synthase and Tre6Pase.
as §2

[3] = target: T2, Tre6P synthase activity of truncated trehalose synthase (Saccharomyces cerevisiae, UniProt Q00764); assay: Tre6P synthase assay of truncated trehalose synthase; conditions: 10 mM G6P, 5 mM UDPG, 5 mM F6P, without phosphate = 100%
T2 construct: contained the 57 kDa short chain; made in house; host or cells: baker's yeast (native enzyme, proteolytically truncated during purification)
T2 sequence (Q00764 1-495): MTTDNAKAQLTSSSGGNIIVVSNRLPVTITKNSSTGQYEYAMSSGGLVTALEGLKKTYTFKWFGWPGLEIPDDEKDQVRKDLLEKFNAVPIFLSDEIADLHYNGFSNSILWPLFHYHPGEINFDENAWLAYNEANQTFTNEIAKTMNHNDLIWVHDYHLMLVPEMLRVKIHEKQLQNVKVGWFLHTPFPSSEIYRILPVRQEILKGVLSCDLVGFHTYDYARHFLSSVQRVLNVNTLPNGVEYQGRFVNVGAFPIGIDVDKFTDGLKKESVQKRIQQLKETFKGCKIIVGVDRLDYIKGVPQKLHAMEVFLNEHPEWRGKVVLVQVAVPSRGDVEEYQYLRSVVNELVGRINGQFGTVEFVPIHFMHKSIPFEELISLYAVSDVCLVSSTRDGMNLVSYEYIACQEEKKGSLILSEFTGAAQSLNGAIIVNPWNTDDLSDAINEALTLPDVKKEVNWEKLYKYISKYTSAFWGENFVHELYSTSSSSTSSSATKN
Experimental: as §1, §3, §2

[4] = 1.3 mM added K phosphate pH 6.8
[5] = 4.0 mM added K phosphate pH 6.8

Tre6Pase activity of truncated trehalose synthase, sequence (P31688 whole entry, one chain of several, the tested form may be a part): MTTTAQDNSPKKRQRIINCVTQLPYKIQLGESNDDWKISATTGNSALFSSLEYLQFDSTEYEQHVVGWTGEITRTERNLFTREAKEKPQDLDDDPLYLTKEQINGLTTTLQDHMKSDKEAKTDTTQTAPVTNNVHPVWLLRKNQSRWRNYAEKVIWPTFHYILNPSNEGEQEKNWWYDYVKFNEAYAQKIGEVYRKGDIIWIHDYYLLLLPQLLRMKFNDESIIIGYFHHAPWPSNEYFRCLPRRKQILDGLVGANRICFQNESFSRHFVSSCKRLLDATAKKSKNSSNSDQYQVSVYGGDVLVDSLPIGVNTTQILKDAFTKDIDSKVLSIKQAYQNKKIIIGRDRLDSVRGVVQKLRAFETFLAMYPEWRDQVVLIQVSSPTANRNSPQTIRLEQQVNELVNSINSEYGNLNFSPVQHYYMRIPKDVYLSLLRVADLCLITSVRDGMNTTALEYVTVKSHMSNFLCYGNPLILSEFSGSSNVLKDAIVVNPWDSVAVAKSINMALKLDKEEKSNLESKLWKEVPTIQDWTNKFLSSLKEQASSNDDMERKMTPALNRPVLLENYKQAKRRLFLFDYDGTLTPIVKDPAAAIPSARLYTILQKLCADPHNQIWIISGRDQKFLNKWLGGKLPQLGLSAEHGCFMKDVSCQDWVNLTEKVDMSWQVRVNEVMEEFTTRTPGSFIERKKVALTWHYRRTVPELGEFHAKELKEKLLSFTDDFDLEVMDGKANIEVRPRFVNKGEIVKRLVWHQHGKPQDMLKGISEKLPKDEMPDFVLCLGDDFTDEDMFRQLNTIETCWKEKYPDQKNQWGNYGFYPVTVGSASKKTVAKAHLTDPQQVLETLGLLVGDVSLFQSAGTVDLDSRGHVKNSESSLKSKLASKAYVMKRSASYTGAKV
Tre6Pase activity of truncated trehalose synthase, sequence (P38427 336-1098, one chain of several, further chain): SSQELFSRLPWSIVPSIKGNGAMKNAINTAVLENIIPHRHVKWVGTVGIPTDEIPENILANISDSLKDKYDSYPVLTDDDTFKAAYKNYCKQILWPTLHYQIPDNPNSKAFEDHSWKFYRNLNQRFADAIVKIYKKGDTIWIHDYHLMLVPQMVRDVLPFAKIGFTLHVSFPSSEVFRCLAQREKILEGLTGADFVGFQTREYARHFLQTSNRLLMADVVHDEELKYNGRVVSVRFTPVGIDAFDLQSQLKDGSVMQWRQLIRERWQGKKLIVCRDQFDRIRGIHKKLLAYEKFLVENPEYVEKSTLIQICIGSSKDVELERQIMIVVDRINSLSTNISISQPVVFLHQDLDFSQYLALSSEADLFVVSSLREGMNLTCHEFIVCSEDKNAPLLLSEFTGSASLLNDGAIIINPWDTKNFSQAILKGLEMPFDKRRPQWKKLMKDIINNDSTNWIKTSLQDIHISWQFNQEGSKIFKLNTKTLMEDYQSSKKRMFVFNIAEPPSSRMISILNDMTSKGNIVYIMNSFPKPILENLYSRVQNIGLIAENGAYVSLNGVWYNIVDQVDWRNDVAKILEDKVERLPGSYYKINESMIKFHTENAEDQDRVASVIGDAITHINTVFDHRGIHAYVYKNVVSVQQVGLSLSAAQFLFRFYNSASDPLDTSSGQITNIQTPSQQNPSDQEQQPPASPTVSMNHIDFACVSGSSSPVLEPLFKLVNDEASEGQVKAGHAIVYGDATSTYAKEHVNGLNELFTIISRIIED
T1 sequence (P31688 whole entry, one chain of several): as the sequence (P31688 whole entry, one chain of several, the tested form may be a part) above
T1 sequence (P38427 whole entry, one chain of several, further chain): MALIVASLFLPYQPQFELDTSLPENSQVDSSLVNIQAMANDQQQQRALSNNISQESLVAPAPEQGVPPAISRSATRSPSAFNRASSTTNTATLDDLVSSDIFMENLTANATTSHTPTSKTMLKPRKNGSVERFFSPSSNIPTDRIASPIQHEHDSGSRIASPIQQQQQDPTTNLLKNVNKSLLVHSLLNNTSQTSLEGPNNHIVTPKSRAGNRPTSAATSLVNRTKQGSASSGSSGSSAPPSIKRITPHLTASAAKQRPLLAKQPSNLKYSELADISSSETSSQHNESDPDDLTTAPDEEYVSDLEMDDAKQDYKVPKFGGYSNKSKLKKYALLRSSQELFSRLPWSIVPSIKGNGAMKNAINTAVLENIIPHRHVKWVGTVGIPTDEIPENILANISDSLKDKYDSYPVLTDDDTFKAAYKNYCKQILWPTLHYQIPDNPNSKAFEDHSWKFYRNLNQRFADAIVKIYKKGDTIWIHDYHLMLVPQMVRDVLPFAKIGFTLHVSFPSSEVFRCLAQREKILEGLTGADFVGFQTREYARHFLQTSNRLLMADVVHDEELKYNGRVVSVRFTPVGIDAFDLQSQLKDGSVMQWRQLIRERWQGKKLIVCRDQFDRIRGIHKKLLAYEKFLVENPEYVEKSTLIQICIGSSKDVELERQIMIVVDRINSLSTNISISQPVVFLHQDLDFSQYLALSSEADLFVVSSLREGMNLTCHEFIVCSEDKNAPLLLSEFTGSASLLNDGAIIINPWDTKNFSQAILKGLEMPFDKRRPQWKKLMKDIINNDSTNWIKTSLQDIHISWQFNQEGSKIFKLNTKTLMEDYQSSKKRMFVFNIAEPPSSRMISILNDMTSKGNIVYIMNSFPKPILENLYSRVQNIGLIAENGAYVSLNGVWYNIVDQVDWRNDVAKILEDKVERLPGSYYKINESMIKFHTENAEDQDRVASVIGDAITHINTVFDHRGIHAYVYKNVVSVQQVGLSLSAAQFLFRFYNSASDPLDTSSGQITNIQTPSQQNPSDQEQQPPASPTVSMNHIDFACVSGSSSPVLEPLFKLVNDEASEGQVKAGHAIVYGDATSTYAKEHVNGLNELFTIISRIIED

Compound | EC50 ([1]; 1.3 mM phosphate) | EC50 ([1]; no added phosphate) | inhibition at 5000 µM ([2]; read-out: inhibition of Tre6Pase activity, 5 mM F6P, saturating phosphate concentrations, truncated enzyme) | inhibition at 5000 µM ([2]; read-out: inhibition of Tre6Pase activity, 5 mM F6P, sub-optimal phosphate concentrations, truncated enzyme) | Tre6P synthase activity, Intact Enzyme [1, 4] | Tre6P synthase activity, Intact Enzyme [1, 5] | Tre6P synthase activity, Truncated Enzyme [3, 4] | Tre6P synthase activity, Truncated Enzyme [3, 5] | EC50 ([2]; initial rates, truncated enzyme, read-out: K1/2 of activation of Tre6Pase by phosphate)
O=C(CO)[C@@H](O)[C@H](O)[C@H](O)COP(=O)(O)O [Transformant F6P, Fructose 6-phosphate] | 1400 µM | 60 µM | 10 to 15% | 20 to 30% | – | – | – | – | –
O=P(O)(O)O [phosphate, K phosphate] | – | – | – | – | 69% | 14% | 94% | 83% | 3000 µM
